By IC50 is commonly meant the concentration at which inhibition is half-maximal.

Molecules are shown by their SMILES. Structures can show the parent of a compound that is named as a salt. Where two headings read alike, the source gives them in different places.

Experimental findings from patent publication US11174268B2, “Benzenesulfonamide compouds and their use as therapeutic agents” (Xenon Pharmaceuticals Inc., priority 2016, dated 2021) are described below.

The target in one series is NaV1.5 (Homo sapiens (Human), UniProt Q14524). Put plainly: Sodium Influx Assay (Flux), NaV1.5.
For a further series, the target named is NaV1.6 (Homo sapiens (Human), UniProt Q9UQD0). Put plainly: Sodium Influx Assay (Flux), NaV1.6.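 Note: Tetracycline-induced cells, compounds applied for one hour at room temperature with modulators holding channels open, IC50 from percent inhibition of sodium influx.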 It is filed as cell-based. Conditions: Trex HEK293 cells, ANG2 dye, inactivated state.
For another series, the target named is NaV1.1 (Homo sapiens (Human), UniProt P35498). Put plainly: Sodium Influx Assay (Flux), NaV1.1.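 Note: channels co-expressed with human β1 subunit and held open by modulators, cells exposed to compounds for one hour at room temperature, IC50 from percent inhibition of influx.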 It is filed as cell-based. Conditions: Trex HEK293 cells, ANG2 dye, inactivated state.
[1] abbreviates: read-out: Flux NaV1.5 IC50, Trex HEK293 cells, ANG2 dye, inactivated state.

Chain of NaV1.5 (Q14524 other isoform, or with tags, fused parts or gaps): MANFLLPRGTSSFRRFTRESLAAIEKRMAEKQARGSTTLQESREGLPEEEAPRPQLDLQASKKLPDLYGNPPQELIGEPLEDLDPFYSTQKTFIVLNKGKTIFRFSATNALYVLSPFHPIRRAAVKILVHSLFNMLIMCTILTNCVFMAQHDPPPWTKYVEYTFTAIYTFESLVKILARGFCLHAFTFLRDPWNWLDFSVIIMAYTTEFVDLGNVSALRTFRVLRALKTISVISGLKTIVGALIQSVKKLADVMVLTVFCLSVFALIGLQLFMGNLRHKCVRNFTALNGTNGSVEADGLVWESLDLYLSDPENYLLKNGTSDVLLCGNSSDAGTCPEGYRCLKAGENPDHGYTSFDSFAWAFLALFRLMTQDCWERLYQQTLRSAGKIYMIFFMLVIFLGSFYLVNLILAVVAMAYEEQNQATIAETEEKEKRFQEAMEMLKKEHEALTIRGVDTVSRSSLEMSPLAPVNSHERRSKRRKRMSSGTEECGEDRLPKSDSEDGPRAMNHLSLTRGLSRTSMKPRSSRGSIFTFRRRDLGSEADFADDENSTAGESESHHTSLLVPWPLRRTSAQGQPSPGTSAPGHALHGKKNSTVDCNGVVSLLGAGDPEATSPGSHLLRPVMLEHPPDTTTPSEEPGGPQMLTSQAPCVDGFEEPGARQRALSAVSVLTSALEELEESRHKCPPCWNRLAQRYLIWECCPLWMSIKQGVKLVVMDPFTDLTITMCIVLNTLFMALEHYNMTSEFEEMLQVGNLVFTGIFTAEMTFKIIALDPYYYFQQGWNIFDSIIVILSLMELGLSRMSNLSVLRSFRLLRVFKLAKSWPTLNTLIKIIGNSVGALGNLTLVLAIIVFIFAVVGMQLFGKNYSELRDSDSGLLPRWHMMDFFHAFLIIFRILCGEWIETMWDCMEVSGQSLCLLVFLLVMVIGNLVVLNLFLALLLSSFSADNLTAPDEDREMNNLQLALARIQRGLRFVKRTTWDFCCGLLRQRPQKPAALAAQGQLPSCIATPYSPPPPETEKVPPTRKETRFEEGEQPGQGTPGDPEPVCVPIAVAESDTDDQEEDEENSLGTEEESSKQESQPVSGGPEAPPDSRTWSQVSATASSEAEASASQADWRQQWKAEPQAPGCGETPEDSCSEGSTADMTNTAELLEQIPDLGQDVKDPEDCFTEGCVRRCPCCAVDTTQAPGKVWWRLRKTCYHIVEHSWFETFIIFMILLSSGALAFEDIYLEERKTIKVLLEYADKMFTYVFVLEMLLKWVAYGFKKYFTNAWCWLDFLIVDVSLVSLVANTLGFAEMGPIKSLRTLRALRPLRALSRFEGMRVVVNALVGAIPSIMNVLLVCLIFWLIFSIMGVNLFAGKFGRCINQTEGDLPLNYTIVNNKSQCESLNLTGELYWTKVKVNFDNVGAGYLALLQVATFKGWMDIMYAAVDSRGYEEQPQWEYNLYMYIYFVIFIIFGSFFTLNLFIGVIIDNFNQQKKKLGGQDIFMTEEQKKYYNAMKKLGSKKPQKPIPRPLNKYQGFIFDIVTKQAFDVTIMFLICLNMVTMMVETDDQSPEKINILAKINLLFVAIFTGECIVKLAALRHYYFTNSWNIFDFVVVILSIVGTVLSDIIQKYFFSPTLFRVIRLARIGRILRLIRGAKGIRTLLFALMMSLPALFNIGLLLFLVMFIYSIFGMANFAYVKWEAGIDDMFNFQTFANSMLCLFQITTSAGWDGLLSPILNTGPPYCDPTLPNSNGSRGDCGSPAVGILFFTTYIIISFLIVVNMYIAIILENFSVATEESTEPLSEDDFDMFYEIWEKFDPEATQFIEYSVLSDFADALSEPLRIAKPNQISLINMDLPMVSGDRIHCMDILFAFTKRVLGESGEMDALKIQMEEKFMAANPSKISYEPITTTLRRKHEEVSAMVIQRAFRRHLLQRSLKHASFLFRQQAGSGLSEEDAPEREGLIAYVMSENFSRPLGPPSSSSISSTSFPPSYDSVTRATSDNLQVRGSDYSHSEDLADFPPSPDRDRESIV

In the case of `CC(C)CN(C)Cc1cccc(F)c1CNc1cc(F)c(S(=O)(=O)Nc2cscn2)c(F)c1` [Example 175, 2,6-difluoro-4-((2-fluoro-6-((isobutyl(methyl)amino)methyl)benzyl)amino)-N-(thiazol-4-yl)benzenesulfonamide], the IC50 on NaV1.5 (setting [1]) came to 14.5 µM; against NaV1.6, 0.342 µM; at NaV1.1, 10.7 µM.

Consider `O=S(=O)(Nc1cscn1)c1c(F)cc(NCc2c(F)cccc2CN2CC(O)(C(F)(F)F)C2)cc1F` [Example 176, 2,6-difluoro-4-((2-fluoro-6-((3-hydroxy-3-(trifluoromethyl)azetidin-1-yl)methyl)benzyl)amino)-N-(thiazol-4-yl)benzenesulfonamide formate], for which the IC50 is 16.9 µM on NaV1.5 (setting [1]), 0.68 µM against NaV1.6 and 5.75 µM on NaV1.1.

Consider `O=S(=O)(Nc1cscn1)c1c(F)cc(NCc2c(F)cccc2CNC2CCC2)cc1F` [Example 177, 4-((2-((cyclobutylamino)methyl)-6-fluorobenzyl)amino)-2,6-difluoro-N-(thiazol-4-yl)benzenesulfonamide formate], for which the IC50 at NaV1.5 (setting [1]) is 22.3 µM; against NaV1.6 it was 0.046 µM; on NaV1.1, 5.4 µM.

`CC(C)(C)NCc1cccc(F)c1CNc1cc(F)c(S(=O)(=O)Nc2cscn2)c(F)c1` [Example 178, 4-((2-((tert-butylamino)methyl)-6-fluorobenzyl)amino)-2,6-difluoro-N-(thiazol-4-yl)benzenesulfonamide formate]: the results for the IC50 at NaV1.5 (setting [1]), on NaV1.6 and against NaV1.1 were 30 µM, 0.265 µM and 13.4 µM, respectively.

For `CN(Cc1cccc(F)c1CNc1cc(F)c(S(=O)(=O)Nc2cscn2)c(F)c1)C1CCC1` [Example 179, 4-((2-((cyclobutyl(methyl)amino)methyl)-6-fluorobenzyl)amino)-2,6-difluoro-N-(thiazol-4-yl)benzenesulfonamide formate], the values for the IC50 at NaV1.5 (setting [1]), against NaV1.6 and against NaV1.1 were 6.42 µM, 0.08 µM and 4.6 µM, respectively.

With `CC1(F)CN(Cc2cccc(F)c2CNc2cc(F)c(S(=O)(=O)Nc3cscn3)c(F)c2)C1` [Example 180, 2,6-difluoro-4-((2-fluoro-6-((3-fluoro-3-methylazetidin-1-yl)methyl)benzyl)amino)-N-(thiazol-4-yl)benzenesulfonamide formate], the IC50 was found to be 24.2 µM on NaV1.5 (setting [1]), 0.166 µM at NaV1.6 and 22.1 µM against NaV1.1.

As for `CN(Cc1cccc(F)c1CNc1cc(F)c(S(=O)(=O)Nc2cscn2)c(F)c1)C1COC1` [Example 181, 2,6-difluoro-4-((2-fluoro-6-((methyl(oxetan-3-yl)amino)methyl)benzyl)amino)-N-(thiazol-4-yl)benzenesulfonamide formate], the IC50 at NaV1.5 (setting [1]) is 30 µM; against NaV1.6 it was 2.96 µM; on NaV1.1 it was 10.6 µM.

As to `CCN(CC)Cc1cccc(F)c1CNc1cc(F)c(S(=O)(=O)Nc2cscn2)c(F)c1` [Example 183, 4-((2-((diethylamino)methyl)-6-fluorobenzyl)amino)-2,6-difluoro-N-(thiazol-4-yl)benzenesulfonamide formate], the IC50 at NaV1.5 (setting [1]) turned out to be 28 µM; at NaV1.6 it was 0.036 µM; against NaV1.1, 30 µM.

On to `CCC(C)(C)N(C)Cc1cccc(F)c1CNc1cc(F)c(S(=O)(=O)Nc2cscn2)c(F)c1` [Example 184, 2,6-difluoro-4-((2-fluoro-6-((methyl(tert-pentyl)amino)methyl)benzyl)amino)-N-(thiazol-4-yl)benzenesulfonamide formate], for which the IC50 against NaV1.5 is at least 30 µM; on NaV1.6 it was 0.332 µM; on NaV1.1, at least 30 µM.

On to `O=S(=O)(Nc1cscn1)c1c(F)cc(NCc2c(F)cccc2CN2CC3(CC3)C2)cc1F` [Example 186, 4-((2-((5-azaspiro[2.3]hexan-5-yl)methyl)-6-fluorobenzyl)amino)-2,6-difluoro-N-(thiazol-4-yl)benzenesulfonamide formate], for which the values for the IC50 on NaV1.5 (setting [1]), at NaV1.6 and at NaV1.1 were 9.12 µM, 0.019 µM and 15.5 µM, respectively.

Turning to `CN(Cc1cccc(F)c1CNc1cc(F)c(S(=O)(=O)Nc2ccsn2)c(F)c1)C(C)(C)C` [Example 189, 4-((2-((tert-butyl(methyl)amino)methyl)-6-fluorobenzyl)amino)-2,6-difluoro-N-(isothiazol-3-yl)benzenesulfonamide formate], the results for the IC50 on NaV1.5 (setting [1]), against NaV1.6 and at NaV1.1 were 30 µM, 0.522 µM and 30 µM, respectively.

Take `O=S(=O)(Nc1cscn1)c1cc(Cl)c(NCc2cc(F)c(F)cc2CN2CCC2)cc1F` [Example 193, 4-((2-(azetidin-1-ylmethyl)-4,5-difluorobenzyl)amino)-5-chloro-2-fluoro-N-(thiazol-4-yl)benzenesulfonamide formate]: the results for the 50% inhibitory concentration (IC50) at NaV1.5 (setting [1]), against NaV1.6 and against NaV1.1 were 26.7 µM, 7.49 µM and 8.85 µM, respectively.

In the case of `O=S(=O)(Nc1cscn1)c1c(F)cc(NCc2cc(CN3CCC3)ccc2F)cc1F` [Example 195, 4-((5-(azetidin-1-ylmethyl)-2-fluorobenzyl)amino)-2,6-difluoro-N-(thiazol-4-yl)benzenesulfonamide formate], the IC50 at NaV1.5 (setting [1]) amounted to 30 µM; on NaV1.6, 0.688 µM; on NaV1.1, 27.2 µM.

Take `O=S(=O)(Nc1cscn1)c1c(F)cc(NCc2cccc(F)c2CN2CCC2)cc1F` [Example 196, 4-((2-(azetidin-1-ylmethyl)-3-fluorobenzyl)amino)-2,6-difluoro-N-(thiazol-4-yl)benzenesulfonamide 2,2,2-trifluoroacetate]: the IC50 on NaV1.5 (setting [1]) was determined as 30 µM; against NaV1.6 it was 0.187 µM; on NaV1.1, 25.9 µM.

Turning to `O=S(=O)(Nc1cscn1)c1c(F)cc(NCc2cccc(F)c2CN2CCC2)c(Cl)c1F` [Example 197, 4-((2-(azetidin-1-ylmethyl)-3-fluorobenzyl)amino)-3-chloro-2,6-difluoro-N-(thiazol-4-yl)benzenesulfonamide 2,2,2-trifluoroacetate], the results for the IC50 at NaV1.5 (setting [1]), against NaV1.6 and against NaV1.1 were 27.6 µM, 0.023 µM and 12 µM, respectively.

On to `CC1(C)CCN1Cc1cccc(Cl)c1CNc1cc(F)c(S(=O)(=O)Nc2cscn2)c(F)c1` [Example 199, 4-((2-chloro-6-((2,2-dimethylazetidin-1-yl)methyl)benzyl)amino)-2,6-difluoro-N-(thiazol-4-yl)benzenesulfonamide formate], for which the IC50 on NaV1.5 (setting [1]) is 30 µM; on NaV1.6, 0.213 µM; against NaV1.1, 4.08 µM.

Regarding `O=S(=O)(Nc1cccc(F)n1)c1cc(Cl)c(NCc2ccccc2CN2CCC2)cc1F` [Example 200, 4-((2-(azetidin-1-ylmethyl)benzyl)amino)-5-chloro-2-fluoro-N-(6-fluoropyridin-2-yl)benzenesulfonamide], the figures for the IC50 at NaV1.5 (setting [1]), against NaV1.6 and at NaV1.1 were 15.4 µM, 0.496 µM and 4.43 µM, respectively.

On to `CC(C)N(C)Cc1cccc(F)c1CNc1cc(F)c(S(=O)(=O)Nc2ccon2)c(F)c1` [Example 201, 2,6-difluoro-4-((2-fluoro-6-((isopropyl(methyl)amino)methyl)benzyl)amino)-N-(isoxazol-3-yl)benzenesulfonamide 2,2,2-trifluoroacetate], for which the IC50 on NaV1.5 (setting [1]) was 30 µM; against NaV1.6 it was 0.561 µM; on NaV1.1, 30 µM.

For `CN(Cc1ccccc1CNc1cc(F)c(S(=O)(=O)Nc2cscn2)c(F)c1)C(C)(C)C` [Example 202, 4-((2-((tert-butyl(methyl)amino)methyl)benzyl)amino)-2,6-difluoro-N-(thiazol-4-yl)benzenesulfonamide 2,2,2-trifluoroacetate], the IC50 on NaV1.5 (setting [1]) is 30 µM; against NaV1.6, 0.534 µM; against NaV1.1 it was 30 µM.

Turning to `CN(Cc1cccc(F)c1CNc1ccc(S(=O)(=O)Nc2cscn2)c(F)c1F)C(C)(C)C` [Example 203, 4-((2-((tert-butyl(methyl)amino)methyl)-6-fluorobenzyl)amino)-2,3-difluoro-N-(thiazol-4-yl)benzenesulfonamide 2,2,2-trifluoroacetate], the IC50 at NaV1.5 (setting [1]) came to 28.3 µM; at NaV1.6, 0.225 µM; on NaV1.1, 26.6 µM.

On to `C[C@H](Nc1cc(F)c(S(=O)(=O)Nc2ccncn2)c(F)c1)c1cc(F)ccc1F` [Example 208, (S)-4-((1-(2,5-difluorophenyl)ethyl)amino)-2,6-difluoro-N-(pyrimidin-4-yl)benzenesulfonamide 2,2,2-trifluoroacetate], for which the IC50 on NaV1.5 (setting [1]) is 30 µM; against NaV1.6, 0.593 µM; against NaV1.1, 9.89 µM.

For the compound `CCc1cccc(CN2CCC2)c1CNc1cc(F)c(S(=O)(=O)Nc2cscn2)c(F)c1` [Example 210, 4-((2-(azetidin-1-ylmethyl)-6-ethylbenzyl)amino)-2,6-difluoro-N-(thiazol-4-yl)benzenesulfonamide 2,2,2-trifluoroacetate], the IC50 at NaV1.5 (setting [1]) came to 26.8 µM; against NaV1.6 it was 0.416 µM; against NaV1.1 it was 3.75 µM.

As for `O=S(=O)(Nc1cscn1)c1c(F)cc(NCc2c(CN3CCC3)cccc2C2CC2)cc1F` [Example 211, 4-((2-(azetidin-1-ylmethyl)-6-cyclopropylbenzyl)amino)-2,6-difluoro-N-(thiazol-4-yl)benzenesulfonamide 2,2,2-trifluoroacetate], the IC50 on NaV1.5 (setting [1]) was found to be 19.2 µM; against NaV1.6 it was 1.76 µM; on NaV1.1, 3.38 µM.

Regarding `COC(C)(C)C1CN(Cc2ccccc2CNc2cc(F)c(S(=O)(=O)Nc3cscn3)c(F)c2)C1` [Example 214, 2,6-difluoro-4-((2-((3-(2-methoxypropan-2-yl)azetidin-1-yl)methyl)benzyl)amino)-N-(thiazol-4-yl)benzenesulfonamide 2,2,2-trifluoroacetate], the IC50 on NaV1.5 (setting [1]) came out at 16.2 µM; against NaV1.6, 0.326 µM; at NaV1.1 it was 13.4 µM.
